Experimental data reported in patent US20260248763A1 (BIO GENUINE (SHANGHAI) BIOTECH CO., LTD, priority 2023, published 2026).

Tests used:
V1aR = molecular target: T1, V1aR (Homo sapiens, UniProt P37288); experiment: Ca2+ mobilization in cells stably expressing V1aR (FLIPR, antagonist mode); assay type: cell-based; conditions: V1a-CHO stably transfected cell line
T1 construct: expressed in transfected cells; host or cells: V1a-CHO stably transfected cell line

[1] = Blood-brain distribution determination in SD rats; assay type: in vivo; conditions: female SD rats, oral, 5 mg/kg; for Kp / AUC(0-t): rat; for Kp: brain/plasma, read-out: Brain/plasma exposure ratio; for AUC(0-t): plasma, read-out: Plasma area under the curve AUC0-t
Description: Test Example 4: Blood-Brain Distribution Determination in SD Rats
In this study, female SD rats were selected as test animals. The LC/MS/MS method was used to quantitatively determine the drug concentrations of the test compounds in plasma and brain tissues at three different time points (0.5 h, 2 h, 4 h or 6 h) after oral administration (5 mg/kg or 10 mg/kg) in rats, so as to evaluate the pharmacokinetic profile of the test drugs in rats.
The example compounds of the present disclosure, made in house.
SD rats (female, 180-220 g, 6-8 weeks old, purchased from Beijing Vital River Laboratory Animal Technology Co., Ltd., with animal production license number SCXK (Beijing) 2021-0006).
Vehicle for oral administration: 5% DMSO+95% PEG400 or a mixture of (50% Labrasol+50% Water).
The test compound, formulated as a clear solution or suspension, was administered to overnight-fasted SD rats via oral gavage. For oral gavage, blood samples (0.25 mL) were collected via jugular vein puncture at pre-dose (0 h) and 0.5 h, 2 h, 4 h or 6 h post-dose. The samples were placed into sodium heparin anticoagulant tubes. After collection, the blood samples were placed on wet ice and centrifuged within 1 hour to separate the plasma. The separated plasma was stored frozen in a −80° C. freezer. After blood collection, the animals were euthanized by cervical dislocation. The whole brain tissue was dissected out. The collected brain tissue was first rinsed with physiological saline, blotted dry with absorbent paper, and then stored frozen in a −80° C. freezer. Prior to analysis, the brain tissue samples and plasma samples were taken out from the −80° C. freezer. After the brain tissue samples were completely thawed, a given amount of brain tissue was weighed, and 50% methanol/water was added for homogenization. Drug concentrations in plasma and brain tissues were determined using the LC-MS/MS method, and the relevant pharmacokinetic parameters were calculated using the non-compartmental model with linear-log trapezoidal method in Phoenix WinNonlin 8.2.0 pharmacokinetic software.

T1 sequence (P37288 whole entry, species assumed): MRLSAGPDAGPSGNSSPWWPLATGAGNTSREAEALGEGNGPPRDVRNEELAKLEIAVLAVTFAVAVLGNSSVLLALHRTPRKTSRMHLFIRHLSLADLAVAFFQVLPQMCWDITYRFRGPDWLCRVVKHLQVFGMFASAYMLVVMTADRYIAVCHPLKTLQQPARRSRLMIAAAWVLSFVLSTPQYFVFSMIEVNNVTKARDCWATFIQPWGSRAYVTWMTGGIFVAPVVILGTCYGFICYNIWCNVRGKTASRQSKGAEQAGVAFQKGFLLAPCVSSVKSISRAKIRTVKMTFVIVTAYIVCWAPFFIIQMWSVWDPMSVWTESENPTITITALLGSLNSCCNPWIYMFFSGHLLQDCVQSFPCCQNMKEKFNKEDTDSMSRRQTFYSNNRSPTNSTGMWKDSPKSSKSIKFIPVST

Row | Structure (SMILES) | IC50 (V1aR) [nM] | Brain tissue area under the curve AUC0-t [1] [ng·h/g] | Kp [1] | AUC(0-t) [1] [ng·h/mL]
1 | CO/N=C1/C[C@@H](CO)N(C(=O)c2ccc(-c3cc(F)cc(C#N)c3C)c3c2OCCO3)C1 [Example C0152, (S,Z)-5-Fluoro-3-(8-(2-(hydroxymethyl)-4-(methoxyimino)pyrrolidine-1-carbonyl)-2,3-dihydrobenzo[b][1,4]dioxin-5-yl)-2-methylbenzonitrile] | 9810 | 169 | 0.08 | 2050
2 | CO/N=C1/C[C@@H]([C@@H](C)O)N(C(=O)c2ccc(-c3cccc(C#N)c3C)cc2)C1 (single isomer, unassigned) [Example C0112] | 602 | 818 | 0.52 | 1570
3 | CON=C1CC(CO)N(C(=O)c2ccc(-c3cccc(C#N)c3C)c3c2OCO3)C1 (single isomer, unassigned) [Example C0099] | 5280 | 150 | 0.1 | 1460
4 | CO/N=C1/C[C@@H](CO)N(C(=O)c2ccc(-c3cccc(C#N)c3C)cc2)C1 [Example C0058, (S, Z)-4′-(2-(Hydroxymethyl)-4-(methoxyimino)pyrrolidine-1-carbonyl)-2-methyl-[1,1′-biphenyl]-3-carbonitrile] | 2250 | 1109 | 0.32 | 3520
5 | CO/N=C1/C[C@@H](CO)N(C(=O)c2ccc(-c3cccc(C#N)c3Cl)cc2)C1 [Example A0203, 2-Chloro-3-(4-[(2S, 4Z)-2-(hydroxymethyl)-4-(methoxyimino)pyrrolidine-1-carbonyl]phenyl)benzonitrile] | 1360 | 2579 | 0.39 | 6670
